Measurements: patent publication US7160690B2, “Nitrate sensor” (Arete Associates, priority 2001, dated 2007)
Where two headings read alike, the source gives them in different places.

What was measured:
[1] = tested on: molybdenum-molybdopterin (Mo-MPT) center of nitrate reductase; details: for lowest nitrate concentration at which quenching of the emission signal is observed: FIG. 8
Procedure: Instead, the biosensor method of this invention uses fluorescence detection to sense nitrate 30 levels.
Once the Mo-MPT 10 is obtained, its initial fluorescence signal is measured.
The quenched fluorescence (Q) is a function of the maximum possible quenching at an infinite nitrate concentration (Qmax) and the affinity of nitrate for its binding site (Kd) in the vicinity of its binding site, or Mo-MPT 10. Thus, it follows Q=(Q max [nitrate])/(Kd+[nitrate]) where: • Q is the quenched fluorescence; • Qmax is maximal quenching at infinite concentration of nitrate; and • Kd is nitrate affinity for the binding site. Quenching can also be considered in terms of: F=Fo−Q where: • F is the fluorescence in the presence of nitrate; • Fo is the fluorescence in the absence of nitrate; and • Q is the quenched fluorescence.
The data was used to calculate Qmax and Kd based on the above equations.
(§1) To further investigate the quenching of Mo-MPT 10 by nitrate 30, a comparison study was performed comparing quenching of Mo-MPT 10 versus FAD 14 by nitrate 30. […] The data line labeled 38 represents quenching of FAD 14, while the data line labeled 40 represents quenching of Mo-MPT 10.

[2] = tested on: FAD; details: 0 to 20 ppm nitrate; FIG. 10, data line 38
Procedure: as §1

[3] = tested on: nitrate reductase; details: read-out: Michaelis constant (Km) of nitrate reduction; nitrate concentration at which the reaction is half maximal; cited from earlier work

O=[N+]([O-])O [nitrate]
type of fluorescence quenching of Mo-MPT by nitrate ([1]; 0 to 4 ppm nitrate, FIG. 10, data line 40): static quenching
Qmax (maximal quenching at infinite concentration of nitrate) ([1]; fluorescence at 440 nm, FIG. 9, exceeds unity, believed to be an experimental artifact): 1.07
lowest nitrate concentration at which quenching of the emission signal is observed ([1]; nitrate added at 0.3 ppm to 3.4 ppm): 0.3 ppm
Kd ([1]; read-out: Kd (nitrate affinity for the binding site, Mo-MPT), fluorescence at 440 nm, fit of Q=(Qmax[nitrate])/(Kd+[nitrate]), FIG. 9): 20 µM
lowest nitrate concentration at which quenching of the emission signal is observed ([1]; same as 0.3 ppm): 23 µmol
type of fluorescence quenching of FAD by nitrate / interaction [2]: no specific interaction
Km [3]: 13 µM
